From ChEMBL document CHEMBL5052833, “Ube2k modulators and methods for their use” (2021)
Active and inactive are the calls of the source. The rule behind the calls is not given here.

Key:
[1] = biological target: Ubiquitin-conjugating enzyme E2 E1 (Homo sapiens) (UniProt P51965); assay: Stabilization of mono-ubiquitinated UBE2E1 (unknown origin) at 500 uM assessed as decrease in poly-Ub measured by poly-ubiquitination assay
[2] = organism: Homo sapiens; assay: Stabilization of mono-ubiquitinated UBE2Q2 (unknown origin) at 500 uM assessed as decrease in poly-Ub measured by poly-ubiquitination assay
[3] = organism: Homo sapiens; assay: Stabilization of mono-ubiquitinated UBE2W (unknown origin) at 500 uM assessed as decrease in poly-Ub measured by poly-ubiquitination assay
[4] = organism: Homo sapiens; assay: Stabilization of mono-ubiquitinated UBE2D4 (unknown origin) at 500 uM assessed as decrease in poly-Ub measured by poly-ubiquitination assay
[5] = organism: Homo sapiens; assay: Stabilization of mono-ubiquitinated UBE2S (unknown origin) at 500 uM assessed as decrease in poly-Ub measured by poly-ubiquitination assay
[6] = biological target: T1, Ubiquitin-conjugating enzyme E2 K (Homo sapiens) (UniProt P61086); assay: Stabilization of mono-ubiquitinated UBE2K (unknown origin) at 500 uM assessed as decrease in poly-Ub measured by poly-ubiquitination assay
T1 sequence (whole entry): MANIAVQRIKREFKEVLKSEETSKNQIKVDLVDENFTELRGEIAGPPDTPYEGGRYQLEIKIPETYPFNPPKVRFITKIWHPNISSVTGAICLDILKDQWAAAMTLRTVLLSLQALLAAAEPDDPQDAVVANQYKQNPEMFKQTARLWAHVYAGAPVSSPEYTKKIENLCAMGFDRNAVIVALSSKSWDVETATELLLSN

[7] = biological target: T1, Ubiquitin-conjugating enzyme E2 K (Homo sapiens); assay: Stabilization of mono-ubiquitinated UBE2K (unknown origin) at 0.4 to 100 uM assessed as decrease in poly-Ub measured by poly-ubiquitination assay; conditions: dose 0.4-100 µM
[8] = biological target: T1, Ubiquitin-conjugating enzyme E2 K (Homo sapiens); assay: Stabilization of UBE2K (unknown origin) at 1 to 1000 uM assessed as modulation of ubiquitin discharge measured by ELISA assay; conditions: dose 1-1000 µM
[9] = system: K562; assay: Antitumor activity against human K562 cells xenografted female SCID Bg mouse assessed as tumor growth inhibition at 25 mg/kg, po administered twice a day for 12 consecutive days and measured on day 10; assay type: functional; conditions: 240 h, time 10 day, read-out: TGI
[10] = system: K562; assay: Antitumor activity against human K562 cells xenografted female SCID Bg mouse assessed as tumor growth inhibition at 25 mg/kg, po administered twice a day for 12 consecutive days and measured on day 12; assay type: functional; conditions: 288 h, time 12 day, read-out: TGI
[11] = system: MV4-11; assay: Antitumor activity against human MV4-11 cells xenografted nude mouse assessed as tumor growth inhibition at 75 mg/kg, po administered twice a day for 24 days; assay type: functional; conditions: MV4-11, po, 576 h, time 24 day, read-out: TGI
[12] = system: MV4-11; assay: Antitumor activity against human MV4-11 cells xenografted nude mouse assessed as tumor growth inhibition at 150 mg/kg, po administered twice a day for 24 days; assay type: functional; conditions: MV4-11, po, 576 h, time 24 day, read-out: TGI
[13] = biological target: T1, Ubiquitin-conjugating enzyme E2 K (Homo sapiens); assay: Stabilization of mono-ubiquitinated UBE2K (unknown origin) at 0.25 to 25 uM assessed as decrease in poly-Ub measured by poly-ubiquitination assay; conditions: dose 0.25-25 µM
[14] = biological target: T1, Ubiquitin-conjugating enzyme E2 K (Homo sapiens); assay: Stabilization of mono-ubiquitinated UBE2K (unknown origin) at 16 to 100 uM assessed as decrease in poly-Ub measured by poly-ubiquitination assay; conditions: dose 16-100 µM
[15] = biological target: T1, Ubiquitin-conjugating enzyme E2 K (Homo sapiens); assay: Stabilization of mono-ubiquitinated UBE2K (unknown origin) at 0.25 to 50 uM assessed as decrease in poly-Ub measured by poly-ubiquitination assay; conditions: dose 0.25-50 µM

Ubiquitin-conjugating enzyme E2 E1 (Homo sapiens), sequence (P51965 whole entry): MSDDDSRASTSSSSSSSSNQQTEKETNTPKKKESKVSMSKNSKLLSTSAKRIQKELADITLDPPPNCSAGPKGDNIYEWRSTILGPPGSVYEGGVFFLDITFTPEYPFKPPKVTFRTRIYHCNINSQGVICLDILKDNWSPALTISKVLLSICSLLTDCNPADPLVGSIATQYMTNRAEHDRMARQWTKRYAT

Activity [1]	Activity [2]	Activity [3]	Activity [4]	Activity [5]	Activity [6]	Activity [7]	Activity [8]	SMILES	also measured
inactive	inactive	inactive	inactive	inactive	Active	–	–	COc1ccc(F)cc1-c1nc(CNC(=O)c2ccccc2OC(F)F)n[nH]1	–
inactive	inactive	inactive	inactive	inactive	Active	Active	Active	COc1ccccc1-c1nc(CNC(=O)c2ccccc2OC(F)F)n[nH]1	–
–	–	–	–	–	–	–	–	COc1ccc(F)cc1-c1nc(CNC(=O)c2cc(F)ccc2OC(F)(F)F)n[nH]1	inhibition in vivo at 25 mg/kg [9]: 73.6%; inhibition in vivo at 25 mg/kg [10]: 86.3%
–	–	–	–	–	–	–	Active	COc1ccc(F)cc1-c1nc(CNC(=O)c2cccc3c2OC(F)(F)O3)n[nH]1	inhibition in vivo at 75 mg/kg [11]: 43%; inhibition in vivo at 150 mg/kg [12]: 37%
–	–	–	–	–	–	–	Active	COc1ccccc1-c1nc(CNC(=O)c2cc(C#N)ccc2OC(F)F)n[nH]1	–
–	–	–	–	–	–	–	–	O=C(NCc1cc(-c2cccs2)[nH]n1)c1ccccc1OC(F)F	Activity [13]: Active
inactive	inactive	inactive	inactive	inactive	Active	Active	Active	COc1ccccc1-c1cc(CNC(=O)c2ccccc2OC(F)(F)F)n[nH]1	–
–	–	–	–	–	–	Active	Active	O=C(NCc1cc(-c2ccccc2O)[nH]n1)c1ccccc1OC(F)(F)F	–
–	–	–	–	–	–	–	–	O=C(NCc1cc(-c2cccs2)[nH]n1)c1ccccc1C(F)(F)F	Activity [14]: Active
–	–	–	–	–	–	–	–	O=C(NCc1cc(-c2cccs2)[nH]n1)c1ccccc1OC(F)(F)F	Activity [15]: Active
